Assay results published in ChEMBL document CHEMBL1141345, “Bacillamides from a hypersaline microbial mat bacterium” (J Nat Prod, 2007).
Activity calls are given as the source filed them.

How the values were obtained:
Staphylococcus aureus [1] = assay: Reduction of alpha-toxin secretion in biofilm-forming methicillin-resistant Staphylococcus aureus at <150 uM; format: functional, organism-based
Staphylococcus aureus [2] = assay: Growth inhibition of methicillin-resistant Staphylococcus aureus; format: functional, organism-based
Bacillus endophyticus = assay: Antimicrobial activity against Bacillus endophyticus SP31 isolate at <500 uM by broth dilution assay; format: functional; settings: Priestia endophytica

Measured: Activity

CC(=O)c1nc(C(=O)NCCc2c[nH]c3ccccc23)cs1
inactive: all assays above

CC(=O)N[C@H](C)c1nc(C(=O)NCCc2c[nH]c3ccccc23)cs1
inactive: all assays above

C[C@@H](O)c1nc(C(=O)NCCc2c[nH]c3ccccc23)cs1
inactive: all assays above
